Assay [1] has as its system sigma receptors. As to the kind of experiment: sigma receptor binding, [^3 H]di(2-tolyl)guanidine (DTG), guinea pig brain membranes. The following applies: inhibition of binding at 10 μM; [^3 H]DTG approximately 4 nM, 25° C., 90 min. On the procedure:
(§1) Brain tissue was prepared from male Hartley guinea pigs (Hazelton Labs, Denver, Pa.) which were anesthetized with CO2 and sacrificed by decapitation. All animal care and use procedures were in accord with the "Guide for the Care and Use of Laboratory Animals" (NIH Publ. No. 86-23, 1985). Homogenization was performed in 10 volumes (wt/vol) of 0.32 M sucrose with a Brinkmann Polytron at setting 5, 30 sec. The homogenate was centrifuged at 900×g for 10 min at 4° C., and the supernatant was collected and centrifuged at 22,000×g for 20 min at 4° C. The pellet was resuspended in 10 volumes of Tris-HCl buffer (50 mm, pH 7.4), incubated at 37° C. for 30 min, and centrifuged at 22,000×g for 20 min at 4° C. Following this, the pellet was resuspended in Tris buffer and frozen in 5-10 mL aliquots corresponding to a tissue concentration of 100 mg/ml, at -70° C. Binding characteristics of the membranes were stable for at least one month when stored at -70° C.
On the day of the assay, membrane aliquots were thawed, resuspended in fresh Tris-HCl buffer and stored on ice until use. […]
Following addition of scintillation cocktail, samples were allowed to equilibrate for at least 4 hr. The amount of bound radioactivity was determined by liquid scintillation spectrometry using a Beckman LS 5000 TA liquid scintillation counter with an efficiency for tritium of approximately 60%. […]
(§2) Scatchard parameters and inhibition constants (Ki values) for the binding of test compounds were also calculated using the EBDA/LIGAND program (McPherson, J. Pharmacol. Meth. 1985, 14, 213-228), purchased from Elsevier/Biosoft, Inc. The Ki values are expressed as the mean or the mean ±SEM of at least two separate determinations performed in triplicate.

In assay [2] the target is T1, sigma receptors (Cavia porcellus, UniProt Q60492).
T1 construct: Brain tissue was prepared from male Hartley guinea pigs; from tissue; host or cells: guinea pig brain membranes
T1 sequence (Q60492 whole entry): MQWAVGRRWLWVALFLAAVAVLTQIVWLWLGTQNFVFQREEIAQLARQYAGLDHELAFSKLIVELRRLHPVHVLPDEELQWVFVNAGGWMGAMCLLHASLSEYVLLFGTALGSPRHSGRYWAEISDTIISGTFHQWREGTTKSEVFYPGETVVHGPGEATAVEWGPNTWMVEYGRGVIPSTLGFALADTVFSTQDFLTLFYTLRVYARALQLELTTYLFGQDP
In words: sigma receptor binding, [^3 H]-(+)-pentazocine, guinea pig brain membranes. As to conditions: for inhibition at 10 µM: 2.5 h, inhibition of binding at 10 μM, [^3 H]-(+)-pentazocine approximately 0.5 nM, read-out: [^3 H] (+)-Pentazocine Percent Inhibition. As to the method:
as §1
On the day of the assay, membrane aliquots were thawed, resuspended in fresh Tris-HCl buffer and stored on ice until use. Each assay tube contained 100 μL of [^3 H]-(+)-pentazocine at a final concentration of approximately 0.5 nM or 100 μL of [^3 H)di(2-tolyl)guanidine (DTG) at a final concentration of approximately 4 nM, 100 μL of various concentrations of the compounds of interest, 500 μL of the tissue suspension and 300 μL of buffer to a final assay volume of 1 mL and a final tissue concentration of approximately 8 mg/tube, corresponding to approximately 0.15 mg protein/tube. Non-specific binding was defined by addition of a final concentration of 1 μM haloperidol to blank tubes for [^3 H](+)-pentazocine assay or by addition of a final concentration of 10 μM haloperidol to blank tubes for [^3 H]DTG assay. All tubes were incubated at 37° C. for 150 min in the [^3 H](+) -pentazocine assay or at 25° C. for 90 min in the [^3 H]DTG assay before termination of the reaction by rapid filtration over Whatman GF/B glass fiber filters that were presoaked in a solution of 0.5% polyethyleneimine for at least 1 hr prior to use. Filters were washed with three 4 ml volumes of cold Tris-HCl buffer.
Following addition of scintillation cocktail, samples were allowed to equilibrate for at least 4 hr. The amount of bound radioactivity was determined by liquid scintillation spectrometry using a Beckman LS 5000 TA liquid scintillation counter with an efficiency for tritium of approximately 60%. The results are reported as a percent (%) inhibition of binding at 10 μM.
as §2

Assay [3] concerns apomorphine-induced stereotypy. As to the kind of experiment: apomorphine-induced stereotypy assay. Type of assay: in vivo, mouse (male, Swiss-Webster). As to conditions: test compound i.p., apomorphine 5.5 mg/kg s.c.; rated 20-30 minutes post drug treatment. As to the method: (§3) The compound of Example 4 was tested in vivo in the apomorphine-induced climbing assay and the apomorphine-induced stereotypy assay using the following procedures:
(§4) Male, Swiss-Webster mice (Taconic Farms, Germantown, N.Y.) weight 20-30 grams were grouped housed in colony facilities for a minimum of two days prior to testing. The colony facility was maintained on a 12 hour light/dark cycle (light: 0600-1800 hours) with water and Agway Prolab 100 rat chow available ad libitum. Each mouse was given an injection of test compound i.p. followed immediately by a s.c. injection of apomorphine 5.5 mg/kg or vehicle. All drugs were administered in a volume of 10 ml/kg body weight. The mice were then placed in individual cylindrical stainless steel climbing cages; 14.5 cm tall, 12 cm in diameter, with walls consisting of 1/16" O.D. bars spaced 0.8-1.0 cm apart, and were allowed to habituate to this environment for 20 minutes. […] Briefly, a (0) was scored for absence of any stereotypic behavior, infrequent stereotypic movements were scored as (1) , a (2) was scored for permanent sniffing and a score of (3) indicated intense and continuous stereotypic behavior. Treatment means for the 10 minute totals were calculated for climbing and stereotypy. […] A minimal effective dose (MED) for inhibition was determined for each parameter based on these analyses.

In assay [4] the test system is apomorphine-induced climbing. As to the kind of experiment: apomorphine-induced climbing assay. Type of assay: in vivo, mouse (male, Swiss-Webster). The following applies: Mus musculus, ip; test compound i.p., apomorphine 5.5 mg/kg s.c.; rated 20-30 minutes post drug treatment; Dunnett's Test P<0.05; read-out: minimal effective dose (MED) for inhibition of apomorphine-induced climbing. On the procedure: as §3, §4

The mark [5] stands for this setting: mean or mean ±SEM of at least two separate determinations performed in triplicate, 37° C., 150 min, read-out: [^3 H] (+)-Pentazocine Ki.

A word on the inhibition: it is the relative decrease from the control value, in per cent. Usually Ki stands for the dissociation constant of the complex between target and ligand, obtained from inhibition or displacement. The term minimal effective dose denotes the smallest amount tested that counted as effective.

Read-outs that look alike come from different tables or passages of the source.

For `C[C@@H]1CCN(C)[C@@H](C)[C@]1(C)CCCO` (relative stereo) [Example 1b, 3-(1,2,3,4-tetramethyl-3-piperidine)propanol], the “[3H]DTG Percent Inhibition” value in the assay with sigma receptors [1] is recorded as 39 percent (%). The inhibition at 10 µM at sigma receptors [2] (37° C., 150 min) was 42%.
Take `CC(C)N1CC[C@@H](C)[C@@](C)(CCCOCC2CC2)[C@@H]1C` (relative stereo) [Example 5b, 3-[3-(cyclopropylmethoxy)propyl]-2,3,4-trimethyl-1-(1-methylethyl)piperidine]: the inhibition at 10 µM at sigma receptors [2] (37° C., 150 min) was found to be 91%. For the same compound, the Ki at sigma receptors [2] (setting [5]) came out at 435 ± 17 nM.
Take `C[C@@H]1CCN(Cc2ccccc2)[C@@H](C)[C@]1(C)CCCOCC1CC1` (relative stereo) [Example 4, 3-[3-(cycloprolmethoxy)propyl]-2,3,4-trimethyl-1-(phenylmethyl)piperidine]: the “effect on stereotypic behavior” value in assay [3] is on record as “did not affect stereotypic behavior”. In assay [4], the minimal effective dose was 167 µmol/kg. The Ki on sigma receptors [2] (setting [5]) amounted to 3.7 ± 0.4 nM.
As for `C=CCOCCC[C@]1(C)[C@H](C)CCN(C)[C@H]1C` (relative stereo) [Example 6], the inhibition at 10 µM at sigma receptors [2] (37° C., 150 min) came out at 89%. In addition, the Ki at sigma receptors [2] (setting [5]) is 559 ± 64 nM.
For `CCCN1CC[C@@H](C)[C@@](C)(CCCOCC2CC2)[C@@H]1C` (relative stereo) [Example 3f, 3-[3-(cyclopropylmethoxy)propyl]-2,3,4-trimethyl-1-propylpiperidine] the same measures were 99% and 45 ± 2 nM.
Consider `C[C@@H]1CCN[C@@H](C)[C@]1(C)CCCO` (relative stereo) [Example 3c, 2.3.4-trimethyl-3-piperidinepropanol], for which the “[3H]DTG Percent Inhibition” value in the assay with sigma receptors [1] is 23 percent (%). The Ki on sigma receptors [2] (setting [5]) came out at 16700 nM.
As to `C[C@@H]1CCN(Cc2ccccc2)[C@@H](C)[C@]1(C)CCO` (relative stereo) [Example 8b, 2,3,4-trimethyl-1-(phenylmethyl)-3-piperidineethanol], the inhibition at 10 µM on sigma receptors [2] (37° C., 150 min) was found to be 85%.
With `CC(C)N1CC[C@@H](C)[C@@](C)(CCCO)[C@@H]1C` (relative stereo) [Example 5a, 2,3. 4-trimethyl-l-(1-methylethyl)-3-piperidinepropanol], the “[3H]DTG Percent Inhibition” value in the assay on sigma receptors [1] is listed as 30 percent (%). Moreover, the inhibition at 10 µM at sigma receptors [2] (37° C., 150 min) was 17%.
On to `C[C@@H]1CCN(C)[C@@H](C)[C@]1(C)CCCOCC1CC1` (relative stereo) [Example 1c, 3-[3-(cyclopropylmethoxy)propyl]1,2,3,4-tetramethylpiperidine], for which the affinity at sigma receptors [2], expressed as Ki, was 197 ± 32 nM. In addition, the inhibition at 10 µM at sigma receptors [2] (37° C., 150 min) was 94%.
`COCCC[C@]1(C)[C@H](C)CCN(C)[C@H]1C` (relative stereo) [Example 13, 3-(3-methoxypropyl)-1,2,3,4-tetramethylpiperidine]: at sigma receptors [2] (setting [5]), the Ki was found to be 7670 nM.
On the same count and under the same terms, with `C[C@@H]1CCN(C)[C@@H](C)[C@@H]1CCCOCC1CC1` (relative stereo) [Example 2c, 3-[3-(cyclopropylmethoxy)propyl]1,2,4-trimethylpiperidine] the figure was 5 ± 0.2 nM.
As for `C#CCOCCC[C@]1(C)[C@H](C)CCN(C)[C@H]1C` (relative stereo) [Example 7], the inhibition at 10 µM at sigma receptors [2] (37° C., 150 min) came out at 76%.
As to `C=CCOCC[C@]1(C)[C@H](C)CCN(Cc2ccccc2)[C@H]1C` (relative stereo) [Example 9], at sigma receptors [2] (37° C., 150 min), the inhibition at 10 µM stood at 99%. Besides, on sigma receptors [2] (setting [5]), the Ki was 300 ± 65 nM.

Values taken from patent US5290789A, “Penta and tetrasubstituted piperidines and compositions and method of treating psychosis” (Sterling Wintrop Inc., priority 1992, dated 1994).
